Source: publication PMC5271370, “A High-Content Assay Enables the Automated Screening and Identification of Small Molecules with Specific ALDH1A1-Inhibitory Activity” (PLoS ONE, 2017)
Like-named read-outs stand apart in the source and are kept apart here.

Columns and labels:
[1] = target: T1, Human ALDH1A1 (Homo sapiens, UniProt P00352); assay: 1,536-well enzymatic assay (NADH fluorescence), ALDH1A1; assay type: biochemical; settings: validation set; 20 nM enzyme, NAD+ and propionaldehyde; read-out: Biochemical IC50 ALDH1A1
T1 construct: made in house
T1 sequence (P00352 1-501): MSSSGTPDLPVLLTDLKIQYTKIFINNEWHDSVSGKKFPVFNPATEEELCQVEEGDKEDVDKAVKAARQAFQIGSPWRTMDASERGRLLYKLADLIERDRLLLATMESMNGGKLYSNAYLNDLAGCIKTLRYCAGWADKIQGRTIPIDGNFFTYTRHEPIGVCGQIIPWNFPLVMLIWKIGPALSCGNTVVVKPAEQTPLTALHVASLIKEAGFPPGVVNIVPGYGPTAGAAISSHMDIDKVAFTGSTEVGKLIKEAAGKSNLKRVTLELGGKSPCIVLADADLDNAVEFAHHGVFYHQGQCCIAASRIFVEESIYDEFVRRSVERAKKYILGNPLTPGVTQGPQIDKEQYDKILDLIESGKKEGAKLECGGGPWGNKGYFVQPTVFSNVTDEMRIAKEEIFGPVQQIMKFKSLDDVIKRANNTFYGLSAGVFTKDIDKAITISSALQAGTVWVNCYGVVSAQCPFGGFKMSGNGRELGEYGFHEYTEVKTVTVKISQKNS
Text: To validate our optimized assay, we assembled a set of 20 previously reported ALDH inhibitors, with varying degrees of target specificity (Table 1 and S4 Fig). […] Briefly, the assay measures the dehydrogenase activity of recombinant human ALDH1A1, ALDH1A2, ALDH1A3, ALDH2 or ALDH3A1 using NAD(P)^+ and either propionaldehyde or benzaldehyde as substrates. An orthogonal resorufin-based assay format was also run with isolated ALDH1A1 to rule out potential false positives due to intrinsic compound fluorescence.
Human ALDH1A1 and ALDH3A1 were expressed and purified as described elsewhere. Human ALDH2 was purchased from Abcam (ab87415). Human ALDH1A2 and ALDH1A3 were purchased from MyBioSource (MBS1005929; San Diego, CA) and ThermoFisher (11636H07E50), respectively. The inhibitory activity of compounds against ALDHs was measured according to protocols described previously. Briefly, 3 μL of enzyme (final concentrations of 20 nM for ALDH1A1, 50 nM for ALDH1A2, 50 nM for ALDH1A3, 75 nM for ALDH2 and 5 nM for ALDH3A1) in assay buffer (100 mM HEPES pH 7.5 with 0.01% Tween 20) were dispensed into a 1,536-well solid-bottom black plate (Greiner Bio One, Monroe, NC). […] Samples were incubated (room temperature, protected from light) for 15 minutes followed by a 1 μL substrate addition of NAD^+ and Propionaldehyde (final concentrations of 1 mM and 80 μM, respectively) for ALDH1A1, 1A2, 1A3, and ALDH2 or NADP^+ and benzaldehyde (final concentrations of 1 mM and 200 μM, respectively) for ALDH3A1. Plates were centrifuged at 1,000 rpm for 15 seconds, then read in kinetic mode on a ViewLux High-throughput CCD imager (PerkinElmer, Waltham, MA) equipped with standard UV fluorescence optics (340 nm excitation, 450 nm emission) for 5 (ALDH1A1, ALDH1A2, ALDH2, ALDH3A1) or 30 (ALDH1A3) minutes. The change in fluorescence intensity over the 5- or 30-minute reaction period was normalized against no-inhibitor and no-enzyme controls and the resulting percent inhibition data were fitted to a 4-parameter Hill equation. Bay-11 7085 was used as intraplate control. To account for artifacts due to intrinsic compound fluorescence in the above spectrum, compounds were also tested in an orthogonal resorufin assay format with optics of excitation 525 nm/emission 598 nm as described before. The same parameters as the NADH assay were used for the resorufin assay, with the addition of (final) 133 μg/mL diaphorase and 37 μM resazurin to the assay solution. Same controls were used in both formats.

[2] = system: MIA PaCa-2 cells; assay: 1,536-well high-content imaging ALDEFLUOR assay, MIA PaCa-2; assay type: cell-based, human; settings: semi-automated; active = high quality concentration response curve and >50% efficacy; up to 45.8 μM
Procedure: (§1) To miniaturize the assay into a 1536-well format amenable to qHTS, we chose MIA PaCa-2 and HT-29 because of their high levels of ALDH1A1(Fig 1A). Utilizing the 8-step protocol described by Ming et al. as a starting point, we developed a “semi-automated” protocol described in S1 Table. Briefly, we plated 1,000 cells in a volume of 5 μL/well into black-optical quality clear bottom 1,536-well plates, and allowed cells to attach overnight. Culture media was subsequently removed by inverting and centrifuging plates using a plate adaptor as previously described and replaced with 5 μL of a solution of either 500 or 100 nM BAAA substrate in ALDEFLUOR buffer. To identify cells based on nuclear staining, we also included 0.5 nM Hoechst 33342 in the above buffer. […] After incubating the plate for 30 minutes at 37°C, 5% CO2, 85% RH, the remaining substrate was removed by centrifugation as above and replaced with 3 μL of ALDEFLUOR buffer. Fluorescence was subsequently imaged using the IN Cell Analyzer 2200 high-content widefield fluorescence based imager and the resulting images were quantified using the IN Cell Investigator v1.6.2 analysis software (see Experimental Procedures for analysis details).
(§2) The ALDEFLUOR kit was purchased from […] Technologies (Vancouver, Canada; #01700). Cells (5 μL) were dispensed into black, optical quality (cyclic olefin copolymer) clear bottom, medium binding TC treated 1,536-well plates (Aurora Microplates, Whitefish MT) using a Multidrop Combi dispenser (ThermoFisher) and incubated overnight (37°C, 5% CO2, 85% RH). Media was subsequently removed by centrifuging plates upside down using a plate adaptor to collect media. A solution of BAAA substrate ([…] Technologies) and Hoechst 33342 (ThermoFisher, final concentrations of 500 nM and 0.5 nM, respectively) in ALDEFLUOR buffer ([…] Technologies #01700) was dispensed onto cells using a Multidrop Combi followed by immediate transfer (23 nL) of compound or control solutions using a Wako Pin-tool (final percentage of DMSO in the cell plates was 0.5%). Unless otherwise noted, all compounds were assayed as 16-point dilutions spanning a final concentration range of 1.4 nM to […]. […] Cells were incubated for 30 minutes or the indicated amount of time at 37°C, 5% CO2, 85% RH to allow the conversion of BAAA into BAA. Supernatant was subsequently removed by centrifugation as described above, then ALDEFLUOR buffer (3 μl) was dispensed by Multidrop Combi before imaging on an IN Cell 2200 (GE Healthcare).
(§3) The above assay was modified for an online robotic screening system. After cell plating and overnight incubation, 4 μL of media were removed using a 64-tip metal aspirator head on a Wako aspirator station, leaving 1 μL remaining in the well, followed by a 4 μL dispense of BAAA and Hoechst 33342 in ALDEFLUOR buffer, for a final concentration of 500 nM and 0.5 nM, respectively. Immediately following the dispense, 23 nL of compound or control solutions were transferred using a Wako Pin-tool. Cells were incubated for 30 minutes at 37°C, 5% CO2, 85% RH, followed by a 4 μL media removal using the Wako aspirator, and a subsequent 3 μL addition of ALDEFLUOR buffer. Plates were then immediately read on the IN Cell 2200 as described below.
(§4) For images captured on the IN Cell 2200 widefield automated microscope, a 10x 0.45 NA Plan Apo objective lens was used to capture the entire well of the 1,536-well plate using standard DAPI (390/18x, 432/48m) and FITC (475/28x, 525/48m) filter sets at 50 msec and 100 msec exposures, respectively. Images were subsequently analyzed using IN Cell Investigator v1.6.2 analysis software’s canned Multi-Target Analysis algorithm (GE Healthcare). Hoechst stained nuclei were identified using top hat segmentation with a minimum area of 75 μm^2 and sensitivity of 93. […]

[3] = system: HT-29 cells; assay: 1,536-well high-content imaging ALDEFLUOR assay, HT-29; assay type: cell-based, human
Procedure: as §1, §2, §3, §4

[4] = system: LN-229 cells; assay: 1,536-well high-content imaging ALDEFLUOR assay, LN-229; assay type: cell-based, human; settings: fully automated assay, Fig 5
Procedure: We next sought to test if the fully automated high-content assay could be used to detect ALDH1A1-specific inhibitors.
as §2
as §3, with “Cells were incubated for 30 minutes at 37°C, 5% CO2, 85% RH, followed by a 4 μL media removal using the Wako aspirator, and a subsequent 3 μL addition of ALDEFLUOR buffer.” left out
as §4, with “Healthcare).” for “Healthcare). Hoechst stained nuclei were identified using top hat segmentation with a minimum area of 75 μm^2 and sensitivity of 93.”
The same controls were also used for the calculation of the Z’ factor for each assay. The Z’ factor, a measure of assay quality control, was determined as previously described. […] All concentration–response curves were fitted as before and IC50 were calculated with the GraphPad Prism software.

[5] = system: ALDH1A1; settings: reported ALDH target 1A1; read-out: Reported Biochemical IC50, ALDH1A1; cited from earlier work

IC50 ([3]; fully automated assay, n = 4, read-out: ALDEFLUOR IC50 HT-29 (Fig 5)) [µM] | IC50 ([3]; validation set, semi-automated protocol, 16-point dilution, 1,000 cells/well, 500 nM BAAA, 30 min, read-out: Aldefluor IC50 HT-29) [µM] | Structure (SMILES) | IC50 [1] [µM] | Activity in ALDEFLUOR assay, MIA PaCa-2 [2] | Activity in ALDEFLUOR assay, HT-29 ([3]; semi-automated, active = high quality concentration response curve and >50% efficacy, up to 45.8 μM) | Inhibition of BAAA turnover in LN-229 (ALDH1A1-negative cells) [4] | IC50 [5] [µM]
 |  | CCSC(=O)N1CCCCCC1 [Molinate] | 27 | tested negative | tested negative |  | 
3.3 | 4.33 | CC(C)CCn1c(CN2CCN(C(=O)C3CC3)CC2)nc2c1c(=O)n(C)c(=O)n2C [NCT-501] |  |  |  | inhibited BAAA turnover only in ALDH1A1-expressing cells | […]
